# From US12146004B2, “Polymyxin compounds and uses thereof” (priority 2014, dated 2024)
# Like-named read-outs stand apart in the source and are kept apart here.
# Columns and labels:
# Format in all cases: cell-based
# Acinetobacter baumannii = system: Acinetobacter baumannii
# Method in brief: (§1)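 Values are minimum inhibitory concentrations in μg/mL, measured across a panel of up to nine strains of each Gram-negative pathogen, some Polymyxin-elevated or resistant.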
# Pseudomonas aeruginosa = system: Pseudomonas aeruginosa
# Method in brief: as §1
# Klebsiella pneumoniae = system: Klebsiella pneumoniae
# Method in brief: as §1
# Escherichia coli = system: Escherichia coli
# Method in brief: as §1
MIC A. baumanii 053 (Acinetobacter baumannii) [µg/mL],MIC A. baumanii 056 (Acinetobacter baumannii) [µg/mL],MIC A. baumanii ATCC BAA-747 (Acinetobacter baumannii) [µg/mL],MIC A. baumanii NCTC 13424 (Acinetobacter baumannii) [µg/mL],MIC P. aeruginosa 068 (Pseudomonas aeruginosa) [µg/mL],MIC P. aeruginosa 070 (Pseudomonas aeruginosa) [µg/mL],MIC P. aeruginosa ATCC 27853 (Pseudomonas aeruginosa) [µg/mL],MIC P. aeruginosa CCUG 59347 (Pseudomonas aeruginosa) [µg/mL],MIC K. pneumoniae 063 (Klebsiella pneumoniae) [µg/mL],MIC K. pneumoniae 065 (Klebsiella pneumoniae) [µg/mL],MIC K. pneumoniae ATCC 13882 (Klebsiella pneumoniae) [µg/mL],MIC E. coli 058 (Escherichia coli) [µg/mL],MIC E. coli 061 (Escherichia coli) [µg/mL],MIC E. coli ATCC 25922 (Escherichia coli) [µg/mL],SMILES,further results
–,–,0.25,0.25,–,–,0.25,0.5,–,32,0.25,8,–,0.25,"CC(C)C[C@@H]1NC(=O)[C@@H](CC2CCCCC2)NC(=O)[C@H](CCN)NC(=O)[C@@H](NC(=O)[C@H](CN)NC(=O)[C@@H](NC(=O)CCC(N)c2ccccc2)[C@@H](C)O)CCNC(=O)[C@H]([C@@H](C)O)NC(=O)[C@H](CCN)NC(=O)[C@H](CCN)NC1=O (single isomer, unassigned; isomer 2) [Example 61, 4-amino-4-phenylbutanoyl L-Thr-L-Dap-polymyxin [D-cyclohexylalanine]-6 heptapeptide. Isomer 2]",–
32,32,0.125,0.25,8,16,0.25,0.25,64,4,0.25,8,32,0.125,"CC(C)C[C@@H]1NC(=O)[C@@H](CC2CCCCC2)NC(=O)[C@H](CCN)NC(=O)[C@@H](NC(=O)[C@H](CCN)NC(=O)[C@@H](NC(=O)C(CCN)c2ccccc2)[C@@H](C)O)CCNC(=O)[C@H]([C@@H](C)O)NC(=O)[C@H](CCN)NC(=O)[C@H](CCN)NC1=O (single isomer, unassigned; isomer 2) [Example 64, 4-amino-2-phenylbutanoyl polymyxin [D-cyclohexylalanine]-6 nonapeptide isomer 2]",–
>64,>64,0.25,1,2,2,0.5,0.5,16,2,0.25,4,16,0.25,"CC(C)C[C@@H]1NC(=O)[C@@H](CC2CCCCC2)NC(=O)[C@H](CCN)NC(=O)[C@@H](NC(=O)[C@H](CN)NC(=O)[C@@H](NC(=O)C(CCN)Cc2ccccc2F)[C@@H](C)O)CCNC(=O)[C@H]([C@@H](C)O)NC(=O)[C@H](CCN)NC(=O)[C@H](CCN)NC1=O (single isomer, unassigned; isomer 2) [Example 65, 4-amino-2-(2-fluorobenzyl) butanoyl L-Thr-L-Dap-polymyxin [D-cyclohexylalanine]-6 heptapeptide. Isomer 2]",–
>64,64,0.25,0.06,4,8,0.25,0.5,16,0.5,0.25,4,16,0.06,"CC(C)C[C@@H]1NC(=O)[C@@H](CC2CCCCC2)NC(=O)[C@H](CCN)NC(=O)[C@@H](NC(=O)[C@H](CCN)NC(=O)[C@@H](NC(=O)C(CCN)C2CCCCC2)[C@@H](C)O)CCNC(=O)[C@H]([C@@H](C)O)NC(=O)[C@H](CCN)NC(=O)[C@H](CCN)NC1=O (single isomer, unassigned; isomer 2) [Example 69, 4-amino-2-cyclohexylbutanoyl polymyxin [D-cyclohexylalanine]-6 nonapeptide isomer 2]",MIC K. pneumoniae ATCC 4352 (Klebsiella pneumoniae): 0.25 µg/mL; MIC E. coli NCTC 9001 (Escherichia coli): 0.03 µg/mL

# Further lines, the compound ahead of its results:
SMILES,MIC A. baumanii 053 (Acinetobacter baumannii) [µg/mL],MIC A. baumanii 056 (Acinetobacter baumannii) [µg/mL],MIC A. baumanii ATCC BAA-747 (Acinetobacter baumannii) [µg/mL],MIC A. baumanii NCTC 13424 (Acinetobacter baumannii) [µg/mL],MIC P. aeruginosa 068 (Pseudomonas aeruginosa) [µg/mL],MIC P. aeruginosa 070 (Pseudomonas aeruginosa) [µg/mL],MIC P. aeruginosa ATCC 27853 (Pseudomonas aeruginosa) [µg/mL],MIC P. aeruginosa CCUG 59347 (Pseudomonas aeruginosa) [µg/mL],MIC K. pneumoniae 063 (Klebsiella pneumoniae) [µg/mL],MIC K. pneumoniae 065 (Klebsiella pneumoniae) [µg/mL],MIC K. pneumoniae ATCC 13882 (Klebsiella pneumoniae) [µg/mL],MIC E. coli 058 (Escherichia coli) [µg/mL],MIC E. coli 061 (Escherichia coli) [µg/mL],MIC E. coli ATCC 25922 (Escherichia coli) [µg/mL],further results
"CC(C)C[C@@H]1NC(=O)[C@@H](CC2CCCCC2)NC(=O)[C@H](CCN)NC(=O)[C@@H](NC(=O)[C@H](CCN)NC(=O)[C@@H](NC(=O)C(CCN)c2cccc(Cl)c2)[C@@H](C)O)CCNC(=O)[C@H]([C@@H](C)O)NC(=O)[C@H](CCN)NC(=O)[C@H](CCN)NC1=O (single isomer, unassigned; isomer 2) [Example 55, 4-amino-2-(3-chlorophenyl) butanoyl polymyxin [D-cyclohexylalanine]-6 nonapeptide. isomer 2]",8,4,0.125,0.25,4,4,0.125,0.5,16,1,0.25,2,16,0.25,MIC E. coli NCTC 9001 (Escherichia coli): 0.06 µg/mL
"CC(C)C[C@@H]1NC(=O)[C@@H](CC2CCCCC2)NC(=O)[C@H](CCN)NC(=O)[C@@H](NC(=O)[C@H](CCN)NC(=O)[C@@H](NC(=O)CC(CN)c2ccccc2)[C@@H](C)O)CCNC(=O)[C@H]([C@@H](C)O)NC(=O)[C@H](CCN)NC(=O)[C@H](CCN)NC1=O (single isomer, unassigned; isomer 2) [Example 57, 4-amino-3-phenylbutanoyl polymyxin [D-cyclohexylalanine]-6 nonapeptide isomer 2]",–,–,–,–,–,–,–,–,–,–,–,–,–,–,MIC A. baumanii ATCC BAA-747 (Acinetobacter baumannii; strain ATCC BAA-747): 1 µg/mL; MIC A. baumanii NCTC 13424 (Acinetobacter baumannii; strain NCTC 13424): 1 µg/mL; MIC P. aeruginosa ATCC 27853 (Pseudomonas aeruginosa; strain ATCC 27853): 0.25 µg/mL; MIC P. aeruginosa CCUG 59347 (Pseudomonas aeruginosa; strain CCUG 59347): 0.5 µg/mL; MIC K. pneumoniae 065 (Klebsiella pneumoniae; strain 065): 8 µg/mL; MIC K. pneumoniae ATCC 13882 (Klebsiella pneumoniae; strain ATCC 13882): 0.25 µg/mL; MIC E. coli 058 (Escherichia coli; strain 058): 16 µg/mL; MIC E. coli ATCC 25922 (Escherichia coli; strain ATCC 25922): 0.25 µg/mL
"CC(C)C[C@@H]1NC(=O)[C@@H](CC2CCCCC2)NC(=O)[C@H](CCN)NC(=O)[C@@H](NC(=O)[C@H](CN)NC(=O)[C@@H](NC(=O)CC(CN)Cc2ccccc2)[C@@H](C)O)CCNC(=O)[C@H]([C@@H](C)O)NC(=O)[C@H](CCN)NC(=O)[C@H](CCN)NC1=O (single isomer, unassigned; isomer 2) [Example 59, 4-amino-3-benzylbutanoyl L-Thr-L-Dap-polymyxin [D-cyclohexylalanine]-6 heptapeptide. Isomer 2]",–,–,–,–,–,–,–,–,–,–,–,–,–,–,MIC A. baumanii 053 (Acinetobacter baumannii; strain 053): 32 µg/mL; MIC A. baumanii 056 (Acinetobacter baumannii; strain 056): 16 µg/mL; MIC A. baumanii ATCC BAA-747 (Acinetobacter baumannii; strain ATCC BAA-747): 0.03 µg/mL; MIC A. baumanii NCTC 13424 (Acinetobacter baumannii; strain NCTC 13424): 0.06 µg/mL; MIC P. aeruginosa 068 (Pseudomonas aeruginosa; strain 068): 4 µg/mL; MIC P. aeruginosa 070 (Pseudomonas aeruginosa; strain 070): 8 µg/mL; MIC P. aeruginosa ATCC 27853 (Pseudomonas aeruginosa; strain ATCC 27853): 0.25 µg/mL; MIC P. aeruginosa CCUG 59347 (Pseudomonas aeruginosa; strain CCUG 59347): 0.25 µg/mL; MIC K. pneumoniae 063 (Klebsiella pneumoniae; strain 063): 32 µg/mL; MIC K. pneumoniae 065 (Klebsiella pneumoniae; strain 065): 2 µg/mL; MIC K. pneumoniae ATCC 4352 (Klebsiella pneumoniae; strain ATCC 4352): 0.125 µg/mL; MIC K. pneumoniae ATCC 13882 (Klebsiella pneumoniae; strain ATCC 13882): 0.25 µg/mL; MIC E. coli 058 (Escherichia coli; strain 058): 2 µg/mL; MIC E. coli ATCC 25922 (Escherichia coli; strain ATCC 25922): 0.125 µg/mL; MIC E. coli NCTC 9001 (Escherichia coli; strain NCTC 9001): 0.06 µg/mL
